Test [1] concerns the target T1, Human Calpain 1/NS1 (Homo sapiens, UniProt P07384).
T1 sequence (P07384 1-714): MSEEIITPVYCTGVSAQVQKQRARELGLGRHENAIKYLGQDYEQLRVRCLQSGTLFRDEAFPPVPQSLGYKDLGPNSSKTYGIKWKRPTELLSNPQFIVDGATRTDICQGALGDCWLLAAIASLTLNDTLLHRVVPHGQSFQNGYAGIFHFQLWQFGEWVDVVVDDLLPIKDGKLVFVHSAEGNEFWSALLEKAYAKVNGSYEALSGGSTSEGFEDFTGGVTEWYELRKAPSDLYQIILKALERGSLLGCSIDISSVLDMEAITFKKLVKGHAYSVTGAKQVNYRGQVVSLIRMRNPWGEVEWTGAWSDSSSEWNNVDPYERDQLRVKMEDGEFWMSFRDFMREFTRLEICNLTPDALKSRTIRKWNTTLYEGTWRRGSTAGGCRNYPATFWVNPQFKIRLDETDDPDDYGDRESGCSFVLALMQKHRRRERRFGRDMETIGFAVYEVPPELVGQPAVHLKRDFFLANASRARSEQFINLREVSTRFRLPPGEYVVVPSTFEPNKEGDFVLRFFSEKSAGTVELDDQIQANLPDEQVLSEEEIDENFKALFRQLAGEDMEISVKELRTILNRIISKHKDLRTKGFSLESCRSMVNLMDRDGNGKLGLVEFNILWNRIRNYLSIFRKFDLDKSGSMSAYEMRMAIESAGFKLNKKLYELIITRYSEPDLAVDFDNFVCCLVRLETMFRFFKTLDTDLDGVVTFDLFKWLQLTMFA
T1 sequence (P04632 1-268 partner): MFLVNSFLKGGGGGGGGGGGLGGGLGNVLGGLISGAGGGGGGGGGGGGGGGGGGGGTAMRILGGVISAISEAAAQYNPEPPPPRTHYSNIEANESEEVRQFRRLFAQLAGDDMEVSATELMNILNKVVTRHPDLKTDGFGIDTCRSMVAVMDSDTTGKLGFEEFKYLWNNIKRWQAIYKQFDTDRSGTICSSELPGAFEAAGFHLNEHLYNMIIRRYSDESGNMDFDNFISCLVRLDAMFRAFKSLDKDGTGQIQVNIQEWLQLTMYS
In words: Calpain inhibition, continuous fluorescence (FRET substrate) assay, calpain 1. It is filed as biochemical. As to conditions: SensoLyte 520 FRET substrate, 25C. A digest of the protocol:
(§1)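 Continuous FRET read-out (ex 490/em 520 nm) of 5-FAM/QXL 520 substrate cleavage, started by adding substrate with CaCl2 for in-situ activation after enzyme–inhibitor preincubation at 25 °C. Buffer was Tris 50 mM pH 7.5, NaCl 100 mM, DTT 1 mM. IC50 fitted (4-parameter) from rates over 1-5 min.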

Test [2] has as its target T2, Human Calpain 2/NS1 (Homo sapiens, UniProt P17655).
T2 sequence (P17655 1-700): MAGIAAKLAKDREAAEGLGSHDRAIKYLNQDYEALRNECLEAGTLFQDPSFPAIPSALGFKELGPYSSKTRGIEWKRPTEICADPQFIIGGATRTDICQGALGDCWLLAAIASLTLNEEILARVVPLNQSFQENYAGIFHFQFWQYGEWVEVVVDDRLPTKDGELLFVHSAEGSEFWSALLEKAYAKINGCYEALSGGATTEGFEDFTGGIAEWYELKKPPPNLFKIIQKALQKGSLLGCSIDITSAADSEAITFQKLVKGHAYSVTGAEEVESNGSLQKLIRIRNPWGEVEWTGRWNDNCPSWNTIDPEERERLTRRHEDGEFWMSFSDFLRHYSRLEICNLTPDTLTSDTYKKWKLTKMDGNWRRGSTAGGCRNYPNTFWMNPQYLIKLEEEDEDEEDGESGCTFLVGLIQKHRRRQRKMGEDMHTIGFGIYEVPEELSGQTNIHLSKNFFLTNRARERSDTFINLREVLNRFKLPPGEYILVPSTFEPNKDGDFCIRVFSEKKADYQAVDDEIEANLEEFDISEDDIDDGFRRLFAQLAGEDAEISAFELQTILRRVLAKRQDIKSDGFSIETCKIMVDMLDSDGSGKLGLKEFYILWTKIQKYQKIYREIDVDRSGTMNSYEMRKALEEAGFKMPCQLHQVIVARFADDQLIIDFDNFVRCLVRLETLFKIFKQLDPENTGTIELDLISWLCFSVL
T2 sequence (P04632 1-268 partner): T1 sequence (P04632 1-268 partner)
The test can be described thus: Calpain inhibition, continuous fluorescence (FRET substrate) assay, calpain 2. It is filed as biochemical. Particulars: SensoLyte 520 FRET substrate, 25C. The method, boiled down:
as §1

Test [3] has as its target T3, Human Calpain 9/NS1 (Homo sapiens, UniProt O14815).
T3 sequence (O14815 1-690): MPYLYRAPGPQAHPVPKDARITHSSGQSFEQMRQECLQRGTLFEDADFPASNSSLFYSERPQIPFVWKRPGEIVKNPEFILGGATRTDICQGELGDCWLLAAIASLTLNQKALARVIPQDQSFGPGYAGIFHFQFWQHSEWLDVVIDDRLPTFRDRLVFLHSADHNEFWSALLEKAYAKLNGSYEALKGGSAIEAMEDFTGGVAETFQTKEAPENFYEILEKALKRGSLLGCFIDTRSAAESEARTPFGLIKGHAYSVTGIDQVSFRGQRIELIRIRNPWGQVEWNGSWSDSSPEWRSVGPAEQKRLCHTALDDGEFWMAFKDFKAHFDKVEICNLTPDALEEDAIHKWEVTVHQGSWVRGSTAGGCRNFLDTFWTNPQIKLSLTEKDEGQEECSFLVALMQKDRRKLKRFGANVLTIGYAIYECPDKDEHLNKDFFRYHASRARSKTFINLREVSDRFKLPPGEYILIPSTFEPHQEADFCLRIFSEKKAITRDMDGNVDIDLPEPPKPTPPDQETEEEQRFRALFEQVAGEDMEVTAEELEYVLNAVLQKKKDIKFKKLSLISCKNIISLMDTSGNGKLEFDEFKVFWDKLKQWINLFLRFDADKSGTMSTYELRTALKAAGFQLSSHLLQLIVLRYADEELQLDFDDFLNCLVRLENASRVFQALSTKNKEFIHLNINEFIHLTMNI
T3 sequence (P04632 1-268 partner): T1 sequence (P04632 1-268 partner)
The test can be described thus: Calpain inhibition, continuous fluorescence (FRET substrate) assay, calpain 9. It is filed as biochemical. Particulars: SensoLyte 520 FRET substrate, 25C. A digest of the protocol: as §1

For test [4], the system named is Calpain activity in SH-SY5Y cells. The test can be described thus: SH-SY5Y spectrin breakdown product (SBDP-150) western blot assay. It is filed as cell-based. Particulars: Homo sapiens, read-out: SH-SY5Y Spectrin IC50. (A western blot detects proteins with antibodies after separation by electrophoresis.)
Test [5] shares this test system. In words: SH-SY5Y Suc-LLVY-AMC fluorescence assay. As to conditions: Homo sapiens, read-out: SH-SY5Y + AMC IC50. It is filed as cell-based.
The mark [6] stands for this setting: SH-SY5Y cells, 25 uM A23187, SBDP-150 western blot.
The mark [7] stands for this setting: SH-SY5Y cells, 100 uM Suc-LLVY-AMC.

The term IC50 denotes the concentration needed to halve the response being measured. On to `NC(=O)C(=O)C(Cc1ccccc1)NC(=O)c1cn(C(F)F)nc1-c1ncnc2ccccc12` (centres unmarked) [Compound 63, N-(4-AMINO-3,4-DIOXO-1-PHENYLBUTAN-2-YL)-1-(DIFLUOROMETHYL)-3-(QUINAZOLIN-4-YL)-1H-PYRAZOLE-4-CARBOXAMIDE], for which the IC50 in test [1] is less than 3 µM; in test [2] it was less than 3 µM; in test [3], less than 3 µM; in test [4] (setting [6]), 10 to 25 µM; in test [5] (setting [7]) it was less than 10 µM.
On to `O=C(NC(Cc1ccccc1)C(=O)Nc1ncco1)c1nsnc1-c1ccccc1` (centres unmarked) [Compound 57, N-(1-(OXAZOL-2-YLAMINO)-1-OXO-3-PHENYLPROPAN-2-YL)-4-PHENYL-1,2,5-THIADIAZOLE-3-CARBOXAMIDE], for which the IC50 is more than 10 µM in test [1]; more than 10 µM in test [2]; more than 10 µM in test [3]; more than 25 µM in test [4] (setting [6]); more than 25 µM in test [5] (setting [7]).
For `Cn1cc(C(=O)NC(Cc2ccccc2)C(=O)C(N)=O)c(-n2cnc3ccc(F)cc32)n1` (centres unmarked) [Compound 47, N-(4-AMINO-3,4-DIOXO-1-PHENYLBUTAN-2-YL)-3-(6-FLUORO-1H-BENZO[D]IMIDAZOL-1-YL)-1-METHYL-1H-PYRAZOLE-4-CARBOXAMIDE], the 50% inhibitory concentration (IC50) in test [1] was less than 3 µM; in test [2] it was less than 3 µM; in test [3] it was less than 3 µM; in test [4] (setting [6]), 10 to 25 µM; in test [5] (setting [7]), more than 25 µM.
On to `Cc1occc1-c1nn(C(F)F)cc1C(=O)NC(Cc1ccccc1)C(=O)C(N)=O` (centres unmarked) [Compound 26, N-(4-AMINO-3,4-DIOXO-1-PHENYLBUTAN-2-YL)-1-(DIFLUOROMETHYL)-3-(2-METHYLFURAN-3-YL)-1H-PYRAZOLE-4-CARBOXAMIDE], for which the half-maximal inhibitory concentration (IC50) in test [1] is less than 3 µM; in test [2], less than 3 µM; in test [3], less than 3 µM; in test [4] (setting [6]) it was less than 10 µM; in test [5] (setting [7]) it was less than 10 µM.
As for `Cc1cc(-c2nn(C)cc2C(=O)NC(Cc2ccccc2)C(=O)C(N)=O)c(C)o1` (centres unmarked) [Compound 55, N-(4-AMINO-3,4-DIOXO-1-PHENYLBUTAN-2-YL-3-(2,5-DIMETHYLFURAN-3-YL)-1-METHYL-1H-PYRAZOLE-4-CARBOXAMIDE], the half-inhibitory concentration (IC50) in test [1] is less than 3 µM; in test [2], less than 3 µM; in test [3] it was less than 3 µM; in test [4] (setting [6]), more than 25 µM; in test [5] (setting [7]), less than 10 µM.
With `NC(=O)C(=O)C(Cc1ccccc1)NC(=O)c1cn(C(F)F)nc1-c1cccc2ncsc12` (centres unmarked) [Compound 7, N-(4-AMINO-3,4-DIOXO-1-PHENYLBUTAN-2-YL)-3-(BENZO[D]THIAZOL-7-YL)-1-(DIFLUOROMETHYL)-1H-PYRAZOLE-4-CARBOXAMIDE], the IC50 in test [1] is less than 3 µM; in test [2], less than 3 µM; in test [3] it was less than 3 µM; in test [4] (setting [6]), less than 10 µM; in test [5] (setting [7]) it was less than 10 µM.
On to `Cc1cc(C(=O)NC(Cc2ccccc2)C(=O)C(N)=O)n(-c2nccc(-c3ccccc3)n2)n1` (centres unmarked) [Compound 45, N-(4-AMINO-3,4-DIOXO-1-PHENYLBUTAN-2-YL)-3-METHYL-1-(4-PHENYLPYRIMIDIN-2-YL)-1H-PYRAZOLE-5-CARBOXAMIDE], for which the IC50 was less than 3 µM in test [1]; less than 3 µM in test [2]; less than 3 µM in test [3]; 10 to 25 µM in test [4] (SH-SY5Y); less than 10 µM in test [5] (SH-SY5Y).
In the case of `Cc1cc(C(=O)NC(Cc2ccccc2)C(=O)C(N)=O)n(-c2ncc(-c3ccccc3)cn2)n1` (centres unmarked) [Compound 30, N-(4-AMINO-3,4-DIOXO-1-PHENYLBUTAN-2-YL)-3-METHYL-1-(5-PHENYLPYRIMIDIN-2-YL)-1H-PYRAZOLE-5-CARBOXAMIDE], the IC50 in test [1] is less than 3 µM; in test [2], less than 3 µM; in test [3], less than 3 µM; in test [4] (SH-SY5Y) it was less than 10 µM; in test [5] (SH-SY5Y), more than 25 µM.
Take `NC(=O)C(=O)C(Cc1ccccc1)NC(=O)c1nsnc1-c1coc(Cl)c1` (centres unmarked) [Compound 52, N-(4-AMINO-3,4-DIOXO-1-PHENYLBUTAN-2-YL)-4-(5-CHLOROFURAN-3-YL)-1,2,5-THIADIAZOLE-3-CARBOXAMIDE]: the IC50 was less than 3 µM in test [1]; less than 3 µM in test [2]; less than 3 µM in test [3]; 10 to 25 µM in test [4] (setting [6]); more than 25 µM in test [5] (setting [7]).
As for `Cc1nc(-c2ccccc2F)c(C(=O)NC(Cc2ccccc2)C(=O)C(=O)O)o1` (centres unmarked) [Compound 64, 3-(4-(2-FLUOROPHENYL)-2-METHYLOXAZOLE-5-CARBOXAMIDO)-2-OXO-4-PHENYLBUTANOIC ACID], the IC50 in test [1] was less than 3 µM; in test [2], less than 3 µM; in test [3], less than 3 µM; in test [4] (setting [6]) it was more than 25 µM; in test [5] (setting [7]), less than 10 µM.
As to `COC(=O)C(=O)C(Cc1ccccc1)NC(=O)c1cn(C)nc1-c1ccccc1F` (centres unmarked) [Compound 40, METHYL 3-(3-(2-FLUOROPHENYL)-1-METHYL-1H-PYRAZOLE-4-CARBOXAMIDO)-2-OXO-4-PHENYLBUTANOATE], the concentration for half-maximal inhibition (IC50) was less than 3 µM in test [1]; less than 3 µM in test [2]; less than 3 µM in test [3]; more than 25 µM in test [4] (setting [6]); less than 10 µM in test [5] (setting [7]).
For the compound `Cn1cc(C(=O)NC(Cc2ccccc2)C(=O)C(N)=O)c(-c2cccc3ccncc23)n1` (centres unmarked) [Compound 54], the IC50 is less than 3 µM in test [1]; less than 3 µM in test [2]; less than 3 µM in test [3]; more than 25 µM in test [4] (setting [6]); more than 25 µM in test [5] (setting [7]).
For `Cn1cc(C(=O)NC(Cc2ccccc2)C(=O)C(N)=O)c(-c2ccc3cccnc3c2)n1` (centres unmarked) [Compound 1, N-(4-AMINO-3,4-DIOXO-1-PHENYLBUTAN-2-YL)-1-METHYL-3-(QUINOLIN-7-YL)-1H-PYRAZOLE-4-CARBOXAMIDE], the IC50 in test [1] is less than 3 µM; in test [2] it was less than 3 µM; in test [3], less than 3 µM; in test [4] (setting [6]), more than 25 µM; in test [5] (setting [7]), more than 25 µM.

Values taken from patent publication US20210009564A1, “CALPAIN MODULATORS AND THERAPEUTIC USES THEREOF” (BLADE THERAPERTICS, INC., priority 2018, published 2021).
